# Experimental data from ChEMBL document CHEMBL1201862, “PubChem BioAssay data set” (2004).
# Calls of active or inactive are those of the source.
# Assays:
# [1] = target: T1, Heat shock factor protein 1 (Mus musculus, UniProt P38532); test: decrease of HSF1-responsive luciferase luminescence – cell-based, NIH3T3, dose retest, confirmation (AID 2382); type: functional;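 further: NIH3T3 fibroblasts with HSF1-driven luciferase reporter stressed by proteasome inhibitor MG132; luminescence from HSF1-driven luciferase expression after 8 hours of MG132 stress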
# T1 sequence (P38532 whole entry): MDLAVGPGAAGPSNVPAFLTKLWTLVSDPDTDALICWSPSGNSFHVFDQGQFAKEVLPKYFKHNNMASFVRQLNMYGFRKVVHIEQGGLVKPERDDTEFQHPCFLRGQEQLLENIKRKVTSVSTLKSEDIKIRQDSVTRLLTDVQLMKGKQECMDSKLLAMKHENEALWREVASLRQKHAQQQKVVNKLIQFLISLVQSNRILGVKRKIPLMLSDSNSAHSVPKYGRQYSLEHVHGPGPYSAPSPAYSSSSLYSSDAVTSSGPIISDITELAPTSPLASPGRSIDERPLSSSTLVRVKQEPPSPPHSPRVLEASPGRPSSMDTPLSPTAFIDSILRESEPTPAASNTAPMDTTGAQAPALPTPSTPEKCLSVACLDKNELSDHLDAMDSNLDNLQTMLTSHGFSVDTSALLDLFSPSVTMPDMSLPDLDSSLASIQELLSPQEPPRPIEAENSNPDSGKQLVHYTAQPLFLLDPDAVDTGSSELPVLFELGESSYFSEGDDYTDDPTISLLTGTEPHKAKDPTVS
# [2] = target: T2, Corticotropin-releasing factor receptor 2/Corticotropin-releasing factor-binding protein (Homo sapiens, UniProt P24387+Q13324); test: Dose Response confirmation of uHTS hits for small molecule antagonists of the CRF-binding protein and CRF-R2 receptor complex.; type: functional; conditions: read-out: IC50_Mean
# T2 sequence (Q13324 whole entry): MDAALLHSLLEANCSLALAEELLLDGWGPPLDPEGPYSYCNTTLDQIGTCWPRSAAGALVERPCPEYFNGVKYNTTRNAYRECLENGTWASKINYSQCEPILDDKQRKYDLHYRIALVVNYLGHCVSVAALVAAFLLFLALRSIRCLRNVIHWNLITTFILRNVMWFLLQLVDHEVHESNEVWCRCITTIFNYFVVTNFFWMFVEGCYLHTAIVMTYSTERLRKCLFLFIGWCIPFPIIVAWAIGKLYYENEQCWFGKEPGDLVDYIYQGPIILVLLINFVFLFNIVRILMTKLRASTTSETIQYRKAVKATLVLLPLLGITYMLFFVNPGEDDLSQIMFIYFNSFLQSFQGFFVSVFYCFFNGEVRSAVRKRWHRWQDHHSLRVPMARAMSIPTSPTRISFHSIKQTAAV
# T2 sequence (P24387 whole entry): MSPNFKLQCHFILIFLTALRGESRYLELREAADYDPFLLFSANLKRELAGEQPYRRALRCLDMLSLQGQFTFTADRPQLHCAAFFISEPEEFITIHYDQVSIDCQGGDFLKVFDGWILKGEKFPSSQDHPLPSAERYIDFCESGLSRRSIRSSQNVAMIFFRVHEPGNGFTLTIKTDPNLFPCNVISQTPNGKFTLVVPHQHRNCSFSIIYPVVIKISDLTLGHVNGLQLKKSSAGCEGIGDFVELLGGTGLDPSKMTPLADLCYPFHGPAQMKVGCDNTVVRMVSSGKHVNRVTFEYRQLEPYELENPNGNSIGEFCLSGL
# [3] = target: T2, Corticotropin-releasing factor receptor 2/Corticotropin-releasing factor-binding protein; test: activators of CRF receptor 2 with binding protein – uHTS hits, confirmation (AID 602473); type: functional; conditions: read-out: EC50_Mean
# [4] = target: T1, Heat shock factor protein 1; test: enhancement of HSF1-driven luciferase signal – cell-based, NIH3T3, luminescence, dose retest, confirmation (AID 435004); type: functional;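 further: stress induced by proteasome inhibitor MG132 added 30 min after compound; luciferase reporter driven by HSF1 response element in NIH3T3 cells; actives raise luminescence as potentiators of the MG132 stress response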
# [5] = target: Cytochrome P450 2C19 (Homo sapiens, UniProt P33261); test: Cytochrome panel assay with activity outcomes. Panel member name: p450-cyp2c19 Compounds with AC50 equal or less than 10 uM are considered active; type: functional
# Chain of Cytochrome P450 2C19 (P33261 whole entry): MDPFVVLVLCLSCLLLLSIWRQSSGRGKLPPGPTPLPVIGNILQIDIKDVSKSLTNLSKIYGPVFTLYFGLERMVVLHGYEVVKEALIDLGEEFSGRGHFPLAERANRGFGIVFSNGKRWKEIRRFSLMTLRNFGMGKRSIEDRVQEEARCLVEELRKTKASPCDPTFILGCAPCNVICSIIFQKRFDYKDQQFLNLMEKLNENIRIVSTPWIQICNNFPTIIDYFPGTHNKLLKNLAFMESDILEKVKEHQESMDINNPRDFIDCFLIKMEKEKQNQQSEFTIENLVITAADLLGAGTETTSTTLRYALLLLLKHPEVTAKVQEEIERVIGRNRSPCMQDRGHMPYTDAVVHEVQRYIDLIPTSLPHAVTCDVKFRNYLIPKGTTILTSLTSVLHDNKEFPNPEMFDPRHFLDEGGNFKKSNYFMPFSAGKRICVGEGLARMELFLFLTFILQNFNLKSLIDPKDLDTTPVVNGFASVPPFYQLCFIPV
# [6] = luciferase reporter signal suppression in cells – H4 neuroglioma cells, luminescence, dose response (AID 1990); type: functional, cell-based
# [7] = Luminescence Cell-Based Dose Response HTS to Identify Inhibitors of 5'UTR Stem-Loop Driven Prion Protein mRNA Translation in H4 Neuroglioblastoma Cells. [Related pubchem assays: 1827 (Project Summary), 1813 (Primary HTS)]; type: functional
# [8] = alpha-synuclein stem-loop luciferase translation blockers – H4 neuroglioma cells, luminescence, confirmation (AID 1988); type: functional, cell-based
# [9] = target: Cytochrome P450 2C9 (Homo sapiens, UniProt P11712)
# Chain of Cytochrome P450 2C9 (P11712 whole entry): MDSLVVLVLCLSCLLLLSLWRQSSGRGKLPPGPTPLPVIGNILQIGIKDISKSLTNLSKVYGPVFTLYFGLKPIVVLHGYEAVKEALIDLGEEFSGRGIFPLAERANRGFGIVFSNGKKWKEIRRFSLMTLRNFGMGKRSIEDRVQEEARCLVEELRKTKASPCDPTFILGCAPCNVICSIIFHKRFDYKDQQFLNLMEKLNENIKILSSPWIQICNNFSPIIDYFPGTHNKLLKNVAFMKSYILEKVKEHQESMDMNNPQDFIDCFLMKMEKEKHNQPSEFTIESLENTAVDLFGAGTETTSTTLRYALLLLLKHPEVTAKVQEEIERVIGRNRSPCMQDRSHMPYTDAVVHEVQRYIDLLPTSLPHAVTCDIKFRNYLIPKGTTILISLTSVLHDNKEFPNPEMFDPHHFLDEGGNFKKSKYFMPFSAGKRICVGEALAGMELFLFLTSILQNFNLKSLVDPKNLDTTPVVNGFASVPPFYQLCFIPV
# [10] = target: Cytochrome P450 2D6 (Homo sapiens, UniProt P10635);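 further: CYP2D6 member of a cytochrome P450 panel assay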
# Chain of Cytochrome P450 2D6 (P10635 whole entry): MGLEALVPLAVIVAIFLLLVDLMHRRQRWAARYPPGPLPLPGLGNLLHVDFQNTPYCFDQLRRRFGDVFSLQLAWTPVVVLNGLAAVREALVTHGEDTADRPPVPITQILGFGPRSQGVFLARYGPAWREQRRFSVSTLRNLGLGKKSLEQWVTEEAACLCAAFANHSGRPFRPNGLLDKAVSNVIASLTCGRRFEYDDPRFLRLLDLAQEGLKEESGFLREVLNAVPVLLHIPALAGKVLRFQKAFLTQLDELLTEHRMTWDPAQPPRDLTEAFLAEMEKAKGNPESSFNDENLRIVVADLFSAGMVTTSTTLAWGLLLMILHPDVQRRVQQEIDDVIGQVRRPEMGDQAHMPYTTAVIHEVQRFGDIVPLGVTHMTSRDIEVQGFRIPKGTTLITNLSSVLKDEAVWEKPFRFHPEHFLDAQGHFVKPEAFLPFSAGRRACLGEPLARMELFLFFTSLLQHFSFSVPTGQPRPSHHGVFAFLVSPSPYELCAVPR
# [11] = tested on: Streptococcus sp. 'group A'; test: Streptococcus pyogenes SK(-)GAS viability under kanamycin – luminescence, BacTiterGlo, confirmation, counter-screen for streptokinase expression inhibitor project, dose response (AID 1900); type: functional, organism-based
# [12] = tested on: Streptococcus; test: GAS UMAA2166 growth inhibition – luminescence, BacTiterGlo, counter-screen for streptokinase expression inhibitor project, dose response (AID 1915); type: functional, organism-based;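 further: potency for reduction of bacterial viability or growth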
# [13] = viability of uninfected HEp-2 cells – cell-based, HTS, cytotoxicity control for RSV inhibitor project, dose response (AID 2410); type: functional; conditions: human respiratory syncytial virus
smiles,measurement,setting,value
CCC(N=C(S)NC1CCCCC1)c1ccccc1 (stereo not drawn),EC50,[1],> 195 µM (not active)
CCOC(=O)c1c(-c2ccc(OC)cc2)csc1NC(=O)CNCc1ccco1,IC50,[2],> 47.1 µM (inactive)
same,EC50,[3],> 53 µM (inactive)
O=C1CCN(C(=O)Nc2ccccc2Cl)N1,EC50,[4],> 260 µM (inactive)
Cc1noc(C)c1-c1cncnc1NCc1cccnc1,AC50,[5]; read-out: AC50,15.8 µM (inconclusive)
Cc1ccc2c(c1)N(C(=O)CCC(=O)N1CCC3(CC1)OCCO3)CCO2,EC50,[1],> 195 µM (not active)
Cc1[nH]c2ccccc2c1SCc1nnc(SCc2ccccc2)n1C,IC50,[2],> 47.1 µM (inactive)
same,EC50,[3],> 53 µM (inactive)
O=C(CCSc1ccc(Br)cc1)Nc1cccnc1,IC50,[2],> 47.1 µM (inactive)
same,EC50,[3],> 53 µM (inactive)
O=C(Nc1ccccn1)c1cc(-c2cccc(Cl)c2)nc2ccccc12,EC50,[6],> 120 µM (not active)
same,EC50,[7],> 120 µM (not active)
same,EC50,[8],15.3 µM (active)
Cc1ccc(C(=O)N2CCN(C(=O)CN3CCOCC3)C2)cc1,IC50,[2],> 47.1 µM (inactive)
same,EC50,[3],> 53 µM (inactive)
COc1ccc(CCN=C(NS(=O)(=O)c2ccc(Cl)cc2)c2ccccc2)cc1,EC50,[6],> 120 µM (not active)
same,EC50,[7],> 120 µM (not active)
same,EC50,[8],> 120 µM (not active)
CCN(C(=O)c1cc2c(O)nc3ccc(C)cc3c2s1)c1ccc(F)cc1,EC50,[1],> 195 µM (not active)
CCn1c(CNC(C)=O)nnc1SCC(=O)c1ccc(Br)cc1,EC50,[4],> 260 µM (inactive)
CCNc1ncc2nc(-c3cccs3)c(=O)n(Cc3cccs3)c2n1,AC50,[5]; read-out: AC50,10 µM (inconclusive)
same,AC50,[9],39.8 µM (inconclusive)
Cc1ccc(/C=C2/NC(=O)N(Cc3ccc(Br)cc3)C2=O)o1,EC50,[4],> 260 µM (inactive)
O=C(NCCc1cn[nH]c1)C1CCC(=O)N(CCc2cccc(F)c2)C1 (stereo not drawn),IC50,[2],> 47.1 µM (inactive)
same,EC50,[3],> 53 µM (inactive)
Clc1ccc(CSc2nnc(-c3sccc3-n3cccc3)o2)cc1,EC50,[4],> 260 µM (inactive)
same,AC50,[10],11.2 µM (inconclusive)
same,AC50,[9],14.1 µM (inconclusive)
COc1ccc(N2CCN(C(=O)c3ccc(NS(=O)(=O)c4ccccc4)cc3)CC2)cc1,EC50,[1],> 195 µM (not active)
CO[C@H]1C=CO[C@@]2(C)Oc3c(C)c(O)c4c(O)c(c5c(nc6cc(C)ccn65)c4c3C2=O)NC(=O)C(C)=CC=C[C@H](C)[C@H](O)[C@@H](C)[C@@H](O)[C@@H](C)[C@H](OC(C)=O)[C@@H]1C,EC50,[11],< 0.06 µM (active)
same,EC50,[12],0.071 µM (active)
COc1ccc(NC(S)=Nc2ccc(C)c(S(=O)(=O)N3CCCCC3)c2)cc1,EC50,[1],> 195 µM (not active)
C[n+]1cccc(CNC(=O)C=NO)c1,AC50,[5]; read-out: AC50,10 µM (inconclusive)
O=C(Nc1cccc2ccccc12)N1CC=CCC1,IC50,[2],< 0.368 µM (active)
same,EC50,[3],> 53 µM (inactive)
COc1ccccc1N1CCN(C2CCCN(C(=O)c3cc(C4CC4)on3)C2)CC1 (stereo not drawn),IC50,[2],> 47.1 µM (inactive)
same,EC50,[3],> 53 µM (inactive)
COc1ccc2nc(NC(=O)C3CCCN(S(=O)(=O)c4cccc5nonc45)C3)sc2c1 (stereo not drawn),CC50,[13],> 50 µM (active)
CC(C)CNP(=S)(c1ccccc1)C(C)(C)C (stereo not drawn),IC50,[2],> 47.1 µM (inactive)
same,EC50,[3],> 53 µM (inactive)
CN(CCC1CCCCO1)C(=O)CCc1nnc(CCCCc2ccccc2)o1 (stereo not drawn),EC50,[4],242 µM (active)
Fc1cccc(F)c1-c1nc(-c2ccncc2)no1,CC50,[13],38 µM (active)
CCCCN1CN=C(S)N(c2ccc(C(=O)OCC)cc2)C1,EC50,[1],> 195 µM (not active)
Cc1cc(C)n(-c2nc3c(c(=O)[nH]c(=O)n3C)n2CC(O)COc2ccc(Cl)cc2Cl)n1 (stereo not drawn),EC50,[6],11.6 µM (active)
same,EC50,[7],10.3 µM (active)
same,EC50,[8],9.24 µM (active)
Cc1ccccc1CS(=O)(=O)CCC(=O)NCCCN1CCN(c2ccccc2F)CC1,AC50,[5],inconclusive
same,AC50,[9],5.62 µM (inconclusive)
O=C1N=C(N2CCOCC2)S/C1=C/c1cccs1,AC50,[5]; read-out: AC50,25.1 µM (inconclusive)
O=S(=O)(N1CCCCC1)N1CCN(c2ccc(F)cc2)CC1,EC50,[1],> 195 µM (not active)
Cc1ccc(S(=O)(=O)NNC(=O)c2cnn(-c3ccc(Cl)cc3)c2C(F)(F)F)cc1,EC50,[4],> 260 µM (inactive)
NC(=O)CSc1nnc([C@@H](N)Cc2c[nH]c3ccccc23)o1,EC50,[1],> 195 µM (not active)
Cc1ccc(OCCOCCn2cnc3ccccc3c2=O)cc1C,CC50,[13],23.3 µM (active)
COc1ccc(C(=O)Nc2cc(C(F)(F)F)ccc2-n2cnc3ccccc32)cc1,EC50,[4],> 260 µM (inactive)
Cc1ccc(C(=O)Nc2cccnc2Oc2ccc(Cl)cc2)cc1,EC50,[6],17.6 µM (active)
same,EC50,[7],> 120 µM (not active)
same,EC50,[8],> 120 µM (not active)
Cc1cccc(NC(S)=Nc2ccc(Cl)c(Cl)c2)c1,EC50,[11],11.5 µM (active)
same,EC50,[12],> 150 µM (not active)
COc1ccc(C(=O)Nc2ccc(OCc3ccccc3)cc2)cc1[N+](=O)[O-],EC50,[1],15.2 µM (active)
COc1ccc(NC(=O)CN(C)S(=O)(=O)c2ccc(Br)s2)cc1OC,EC50,[4],> 260 µM (inactive)
Cc1ccc(S(=O)(=O)CCN2CCN(c3ccccc3)CC2)cc1,EC50,[4],> 260 µM (inactive)
Cc1c(Cl)c([N+](=O)[O-])nn1CC(=O)NC1CCCCC1,IC50,[2],> 47.1 µM (inactive)
same,EC50,[3],> 53 µM (inactive)
Cc1ccc(CN2CC(=O)N3[C@H]4c5cc(Cl)ccc5OC[C@@H]4[C@H](c4ccccc4)[C@]3(C)C2=O)cc1,IC50,[2],> 47.1 µM (inactive)
same,EC50,[3],> 53 µM (inactive)
COc1cc(Br)cc(/C=N/N(CCO)C2=NS(=O)(=O)c3ccccc32)c1OC,EC50,[6],18.5 µM (active)
same,EC50,[7],> 120 µM (not active)
same,EC50,[8],18.1 µM (active)
O=C(N/N=C/C=C/c1ccccc1)c1[nH]nc2c1CCC2,EC50,[6],10.6 µM (inconclusive)
same,EC50,[8],3.42 µM (active)
CCC1=C(OC(=O)N(CC)CC)N2C(=O)O/C(=N\CC3CC3)[C@]2(Cc2ccccc2)[C@H]2C1=CC[C@H]1C(=O)N(c3ccccc3)C(=O)[C@H]12,CC50,[13],36.7 µM (active)
Cc1cccc(Nc2ncccc2C(=O)O)c1C [NIXYLIC ACID],EC50,[1],> 195 µM (not active)
